{"source": "patent US20030207791A1", "about": "“Materials and methods relating to the treatment of leukaemias” (priority 2000, published 2003)", "format_in_all_cases": "cell-based", "key": {"[1]": {"tested_on": "PML-RAR expressing murine primary haemopoietic precursors", "test": "RA relief of differentiation block in transduced murine primary haemopoietic precursors", "conditions": "RA 3 nM or 1 μM, block by PML-RAR", "from_the_text": "(§1) FIG. 5. […] (C-D) Effects of RAR chimeric proteins on differentiation of murine hematopoietic progenitors. Lin-cells were transduced with the indicated retroviral vectors and then sorted by FACS on the basis of their GFP positivity. In the case of ΔCC-PML-RAR, GFP+ cells were sorted in GFP^high or GFP^low expressors.\n(§2) Murine hematopoietic progenitors were purified from the bone marrow of 12 weeks old BALB-C mice using commercially available kits (StemCell Tecnology). Cells were selected on the basis of the absence of lineage differentiation markers (lin−). Purified cells were pre-stimulated for two days in medium containing IL-3 (20 ng/ml), IL-6 (20 ng/ml) and stem cell factor (SCF, 100 ng/ml) and then attached to Retronectin (Takara Shuzo)-coated multiwell plates. Cells were incubated for 48 hours with the filtered supernatant from ecotropic packaging cells (Phoenix) transiently transfected with the indicated retroviral constructs (Grignani et al., 1998)."}, "[2]": {"tested_on": "CC-RAR expressing murine primary haemopoietic precursors", "test": "RA relief of differentiation block in transduced murine primary haemopoietic precursors", "conditions": "RA 3 nM or 1 μM, block by CC-RAR", "from_the_text": "as §1, §2"}, "[3]": {"tested_on": "ΔCC-PML-RAR", "test": "RA sensitivity of transcriptional repression, RARE-G5-TATA reporter", "conditions": "RA 1 nM-10 μM, repression by ΔCC-PML-RAR", "text": "Light units were normalized to expression of a co-transfected β-galactosidase expression plasmid."}, "[4]": {"tested_on": "murine hematopoietic progenitors (lin-)", "test": "In vitro differentiation of murine hematopoietic progenitor cells transduced with retroviral constructs", "conditions": "control cells, RA 3 nM or 1 μM; maximum; as described (Purton et al., 1999)", "description": "FIG. 5. A heterologous oligomerization domain activates the transforming potential of RAR. (A-B) p53-RAR form oligomers. (A) Nuclear extracts from COS-1 cells transfected with expression vectors for p53-RAR or RAR were incubated with tritiated RA (10 nM), fractionated and analysed as described in FIG. 3A. Note that the low MW peak of RA-binding capacity (coinciding with RAR) in p53-RAR cells derives from expression of wild type RAR, starting from its own ATG-conserved in the p53-RAR expression vector (see below)-. (B) Fractions from gel filtration of in vitro translated, ^35-S labelled p53-RAR were analysed by SDS-PAGE, followed by autoradiography. Note that two products are generated in the reaction: full-length p53-RAR, fractionating in oligomeric complexes, and RAR, starting from the internal ATG site of RAR and fractionating as a monomer. […] After sorting, cells were either plated in differentiation medium in the absence or in the presence of RA (3 nM or 1 μM) (C), or analysed by Western blot (D). […]\nThe capacity of p53-RAR to block differentiation was evaluated using primary hematopoietic precursors purified from murine bone marrow on the basis of the absence of surface differentiation antigens (lin-see methods). […] After 8-10 days, colonies were pooled and analysed for the expression of myeloid differentiation markers (Mac-1 and GR-1). […]"}}, "data": [{"smiles": "CC1=C(/C=C/C(C)=C/C=C/C(C)=C/C(=O)O)C(C)(C)CCC1", "note": "[RA, retinoic acid]", "values": [{"measurement": "RA concentration that relieved the differentiation block", "setting": "[1]", "result": 1, "unit": "µM"}, {"measurement": "RA concentration that relieved the differentiation block", "setting": "[2]", "result": 1, "unit": "µM"}, {"measurement": "RA concentration that reverted transcriptional repression", "setting": "[3]", "result": "up to 100 nM"}, {"measurement": "reduction in the number of Mac1+ cells", "setting": "[4]", "result": "20-30%"}]}]}
